Measured values from patent publication US20080242683A1, “Organic Compounds” (priority 2005, published 2008).
Structures can show the parent of a compound that is named as a salt.

Each compound was assayed against adenosine A2A receptor (Homo sapiens, UniProt P29274) (assay: adenosine A2A receptor agonist assay (method of Murphree et al.)). Conditions: Mol Pharmacol 61, 455-462 (2002).
Format: binding
From the text: Compounds of formula (I) and their pharmaceutically acceptable salts are useful as pharmaceuticals. In particular, they activate the adenosine A2A receptor, i.e., they act as A2A receptor agonists.

Chain of adenosine A2A receptor (P29274 whole entry): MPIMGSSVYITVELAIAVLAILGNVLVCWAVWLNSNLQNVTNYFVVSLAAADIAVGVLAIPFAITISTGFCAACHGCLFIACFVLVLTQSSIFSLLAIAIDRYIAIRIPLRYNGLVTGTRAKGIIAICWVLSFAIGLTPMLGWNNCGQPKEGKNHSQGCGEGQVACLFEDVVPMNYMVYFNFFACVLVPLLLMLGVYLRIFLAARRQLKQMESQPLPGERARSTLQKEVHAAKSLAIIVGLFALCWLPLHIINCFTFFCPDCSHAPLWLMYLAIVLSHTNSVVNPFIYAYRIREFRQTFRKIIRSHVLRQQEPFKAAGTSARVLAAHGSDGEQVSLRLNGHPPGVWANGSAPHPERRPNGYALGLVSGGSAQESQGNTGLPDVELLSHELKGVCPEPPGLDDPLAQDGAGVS

SMILES | Ki
CCn1nnc([C@H]2O[C@@H](n3cnc4c(NCCc5ccc(S(N)(=O)=O)cc5)nc(N5CC[C@@H](NC(=O)N[C@@H]6CCNC6)C5)nc43)[C@H](O)[C@@H]2O)n1 [Example 108, 4-(2-{9-[(2R,3R,4S,5R)-5-(2-Ethyl-2H-tetrazol-5-yl)-3,4-dihydroxy-tetrahydro-furan-2-yl]-2-[(R)-3-((R)-3-pyrrolidin-3-ylureido)-pyrrolidin-1-yl]-9H-purin-6-ylamino}-ethyl)-benzenesulfonamide trifluoroacetate] | 5 nM
OC[C@H]1O[C@@H](n2cnc3c(NCC(c4ccccc4)c4ccccc4)nc(N4CC[C@H](c5ccc(F)cc5)C4)nc32)[C@H](O)[C@@H]1O [Example 2, (2R,3R,4S,5R)-2-{6-(2,2-diphenyl-ethylamino)-2-[(R)-3-(4-fluoro-phenyl)-pyrrolidin-1-yl]-purin-9-yl}-5-hydroxymethyl-tetrahydro-furan-3,4-diol trifluoroacetate] | 610 nM
O=C(N[C@@H]1CCN(C(=O)NC2CCN(C(=O)OCc3ccccc3)CC2)C1)N[C@@H]1CCN(c2nc(NCC(c3ccccc3)c3ccccc3)c3ncn([C@@H]4O[C@H](CO)[C@@H](O)[C@H]4O)c3n2)C1 [Example 24, 4-{[(R)-3-(3-{(R)-1-[9-((2R,3R,4S,5R)-3,4-Dihydroxy-5-hydroxymethyl-tetrahydro-furan-2-yl)-6-(2,2-diphenyl-ethylamino)-9H-purin-2-yl]-pyrrolidine-3-yl}-ureido)-pyrrolidine-1-carbonyl]-amino}-piperidine-1-carboxylic acid benzyl ester trifluoroacetate] | 59 nM
CCn1nnc([C@H]2O[C@@H](n3cnc4c(NCC(c5ccccc5)c5ccccc5)nc(N5CC[C@@H](NC(=NCc6ccccn6)NC#N)C5)nc43)[C@H](O)[C@@H]2O)n1 [Example 122, N—((R)-1-{6-(2,2-Diphenyl-ethylamino)-9-[(2R,3R,4S,5R)-5-(2-ethyl-2H-tetrazol-5-yl)-3,4-dihydroxy-tetrahydro-furan-2-yl]-9H-purin-2-yl}-pyrrolidin-3-yl)-N′-cyano-N″-pyridin-2-ylmethyl-guanidine] | 4 nM
CN(C)[C@@H]1CCN(c2nc(NCC(c3ccccc3)c3ccccc3)c3ncn([C@@H]4O[C@H](CO)[C@@H](O)[C@H]4O)c3n2)C1 [Example 22, (2R,3R,4S,5R)-2-[2-((R)-3-dimethylamino-pyrrolidin-1-yl)-6-(2,2-diphenyl-ethylamino)-purin-9-yl]-5-hydroxymethyl-tetrahydro-furan-3,4-diol trifluoroacetate] | 0.5 nM
CCc1cc([C@H]2O[C@@H](n3cnc4c(N[C@H](CO)Cc5ccccc5)nc(N5CC[C@@H](N6CCCC6)C5)nc43)[C@H](O)[C@@H]2O)on1 [Example 65, (2R,3R,4S,5S)-2-[(R)-2-[1,3′]Bipyrrolidinyl-1′-yl-6-((S)-1-hydroxymethyl-2-phenyl-ethylamino)-purin-9-yl]-5-(3-ethyl-isoxazol-5-yl)-tetrahydro-furan-3,4-diol] | 2 nM
CCn1nnc(C2OC(n3cnc4c(NCC(c5ccc(O)cc5)c5ccc(O)cc5)nc(N5CCC(NC(=O)c6ccc(N7CCOCC7)nc6)C5)nc43)C(O)C2O)n1 [Example 77, N—((R)-1-{6-[2,2-bis-(4-Hydroxy-phenyl)-ethylamino]-g-[(2R,3R,4S,5R)-5-(2-ethyl-2H-tetrazol-5-yl)-3,4-dihydroxy-tetrahydro-furan-2-yl]-9H-purin-2-yl}-pyrrolidin-3-yl)-6-morpholin-4-yl-nicotinamide trifluoroacetate] | 6 nM

Continued, values first:

Ki | SMILES
190 nM | N[C@@H]1CCN(c2nc(NCC(c3ccccc3)c3ccccc3)c3ncn([C@@H]4O[C@H](CO)[C@@H](O)[C@H]4O)c3n2)C1 [Example 7, (2R,3R,4S,5R)-2-[2-((R)-3-Amino-pyrrolidin-1-yl)-6-(2,2-diphenyl-ethylamino)-purin-9-yl]-5-hydroxymethyl-tetrahydro-furan-3,4-diol trifluoroacetate]
54 nM | OC[C@H]1O[C@@H](n2cnc3c(NCC(c4ccccc4)c4ccccc4)nc(N4CC[C@@H](O)C4)nc32)[C@H](O)[C@@H]1O [Example 13, (2R,3R,4S,5R)-2-[6-(2,2-diphenyl-ethylamino)-2-((R)-3-hydroxy-pyrrolidin-1-yl)-purin-9-yl]-5-hydroxymethyl-tetrahydro-furan-3,4-diol]
160 nM | O=C(NC1CCN(c2ccccn2)CC1)N[C@@H]1CCN(c2nc(NCC(c3ccccc3)c3ccccc3)c3ncn([C@@H]4O[C@H](CO)[C@@H](O)[C@H]4O)c3n2)C1 [Example 9, 1-{(R)-1-[9-((2R,3R,4S,5R)-3,4-Dihydroxy-5-hydroxymethyl-tetrahydro-furan-2-yl)-6-(2,2-diphenyl-ethylamino)-9H-purin-2-yl]-pyrrolidin-3-yl}-3-(3,4,5,6-tetrahydro-2H-[1,2′]bipyridinyl-4-yl)-urea trifluoroacetate]
12 nM | O=C(N[C@@H]1CCNC1)N[C@@H]1CCN(c2nc(NCC(c3ccccc3)c3ccccc3)c3ncn([C@@H]4O[C@H](CO)[C@@H](O)[C@H]4O)c3n2)C1 [Example 11, 1-{(R)-1-[9-((2R,3R,4S,5R)-3,4-Dihydroxy-5-hydroxymethyl-tetrahydro-furan-2-yl)-6-(2,2-diphenyl-ethylamino)-9H-purin-2-yl]-pyrrolidin-3-yl}-3-(R)-pyrrolidin-3-yl-urea trifluoroacetate]
